From patent publication US20230024991A1, “PRODRUGS OF ACYL CARNITINES” (ATAI Life Sciences AG, priority 2021, published 2023)

Assays:
[1] = Determination of plasma half life, human plasma; format: in vitro ADME; conditions: 37° C. (Table 1), read-out: Human Mean t1/2
Method: (§1) Human, rat, and dog plasma were dialyzed against PBS buffer, pH 7.4 using Thermo Slide-A-Lyzer™ G2 Dialysis Cassettes for 24 hours at 4° C. prior to the experiment.
(§2) The assay was carried out in 96-well microtiter plates. Prodrugs and the reference compound (propantheline) at a final concentration of 1 μM were incubated separately in singlet at 37° C. with mouse, rat, dog, monkey or human plasma for 0, 30, 60, 120, 240, and 1440 min. At the end of each incubation time point, 300 μL of the quenching solutions (50% acetonitrile, 50% methanol, 0.05% formic acid) containing the internal standards (bucetin and d3-carnitine) was added to each well. The incubation plates were sealed, vortexed, and centrifuged at 10° C. for 15 minutes at 4000 rpm. The supernatant was transferred to fresh plates for LC/MS/MS analysis of the test compounds.
(§3) All samples were analyzed by LC/MS/MS using an AB Sciex API 4000 instrument (AB Sciex LLC, Framingham, Mass.), coupled to a Shimadzu LC-20AD LC Pump system (Shimadzu North America, Columbia, Md.). […]
(§4) The extent of metabolism was calculated based on the disappearance of prodrugs, compared to their initial concentration. The initial rates of clearance of prodrugs were calculated using linear regression plot of semi-log % remaining of prodrugs versus time. […]

[2] = Determination of plasma half life, rat plasma; format: in vitro ADME; conditions: pH 7.4, 37° C. (Table 4), read-out: Mean t1/2
Method: as §1, §2, §3, §4

[3] = Determination of plasma half life, dog plasma; format: in vitro ADME; conditions: pH 7.4, 37° C. (Table 4)
Method: as §1, §2, §3, §4

[4] = cited from earlier work
[5] = normal baseline conditions; cited from earlier work

| half-life at 1 μM [1] | half-life at 1 μM [2] | half-life at 1 μM [3] | SMILES | bioavailability of dietary L-carnitine ([4]; dietary, depends on the amount in the meal) | bioavailability ([4]; oral administration of large amounts of exogenous carnitine (1-6 g)) | tubular reabsorption in the kidney [5] |
| --- | --- | --- | --- | --- | --- | --- |
| 9.16 h | 8.79 h | 22.7 h | CCOC(=O)C[C@H](C[N+](C)(C)C)OC(=O)CC [Compound 3, (R)-4-ethoxy-N,N,N-trimethyl-4-oxo-2-(propionyloxy)butan-1-aminium chloride] | – | – | – |
| 0.927 h | 4.33 h | 11.7 h | CCCCC(=O)O[C@H](CC(=O)OCC)C[N+](C)(C)C [Compound 4, (R)-4-ethoxy-N,N,N-trimethyl-4-oxo-2-(pentanoyloxy)butan-1-aminium chloride] | – | – | – |
| – | – | – | C[N+](C)(C)C[C@H](O)CC(=O)[O-] [L-carnitine] | 54-87% | 5-18% | about 99% |
